“And” between values parts separate entries of the source, which are not always exact repeats. Identical values can stand only once. “Also recorded” adds a separate entry of the source.
Assays:
human spermatozoa [1] = assay: Intracellular free calcium ([Ca2+]i) by single cell fura-2 imaging in human spermatozoa; type: cell-based; details: for effect of non-genomic VDR antagonist pretreatment on the calcium response to 1,25(OH)2D3: pretreatment 1-40 μM
Method: The intracellular free calcium concentration ([Ca2+]i) was measured in human spermatozoa from 12 normal men. Freshly delivered semen samples went through percoll density gradient centrifugation to optimize the number of spermatozoa expressing VDR and the metabolising enzymes. […] Subsequently 80 μl sperm content were diluted in 920 μl Krebs-Ringer buffer and were loaded on polynysine-coated chambers to minimize movement of the vital spermatozoa (Lab-Tek; Nalge Nunc International, USA).
Excitation was obtained by a Polychrome V illuminator from Till Photonics (Germany) and images were acquired using a Cool Snap CCD camera (Photometrics, USA) from Robert Scientific (Malaysia).
After background subtraction, ratio images were formed using MetaFluor software.
Semen samples were separated by percoll density gradient centrifugation to ensure viable and motile spermatozoa and resuspended in capacitating media for 1.5 hours. Afterwards, loaded with 3 μM of the fluorescent probe (intracellular calcium binding) fura-2/AM (Invitrogen, USA) for 30 min, centrifuged (10 min at 300 g) and washed with Krebs-Ringer buffer (120 mM NaCl, 15 mM NaHCO3, 5 mM KCl, 1 mM CaCl2, 5 mM Na2HPO4, 1 mM MgCl2 pH 7.3). […] Subsequently, 80 μl of the sperm sample was diluted in 920 μl Krebs-Ringer buffer and loaded on polylysine-coated chambers to minimize movement of the spermatozoa (Lab-Tek; Nalge Nunc International, USA). […] Excitation was obtained by a Polychrome Villuminator from Till Photonics (Germany) and images were acquired using a Cool Snap CCD camera (Photometrics, USA) from Robert Scientific (Malaysia). […] After background subtraction, ratio images were formed using MetaFluor software.
All experiments started by using low magnification to ensure visibility of several spermatozoa simultaneously. […] All measurements of [Ca2+]i were based upon evaluation of at least three spermatozoa simultaneously (see exact number in figure legends), and were repeated in at least three separate experiments. We used 10 different semen donors to ensure that all experiments were reproduced on semen samples from at least two different men.

human spermatozoa [2] = assay: Acrosome reaction of motile spermatozoa (Pisum sativum agglutinin-FITC staining); type: cell-based
Method: Acrosome status was assessed according to a modified version of the method described by Cross et al. 1986. […] . When more than half the head of a spermatozoon was brightly and uniformly fluorescent, the acrosome was considered to be intact. Spermatozoa without fluorescence or with a fluorescing band limited to the equatorial segment were considered to be acrosome-reacted. Spermatozoa with a fluorescing band limited to the equatorial segment were named eq-AR. The person assessing the slides was blinded to the treatment of the sample.

human spermatozoa [3] = assay: Induction of sperm motility (ABC motility) in semen samples in vitro; details: for sperm motility (ABC) in young normal men: 1 nM 1,25(OH)2D3, p=0.01; for sperm motility in infertile/subfertile men: 1 nM 1,25(OH)2D3, p=0.80
Method: The preparation was placed on the heating stage of a microscope at 37° C. and immediately examined at x400 magnification counting 200 spermatozoa. The sperm were classified as progressive motile (WHO class A+B), non-progressive motile (class C) or immotile (class D). The motility counting was repeated on a second aliquot of 10 μl well-mixed semen.
The participants produced a semen sample by masturbation. Self-reported information of duration of ejaculation abstinence was obtained. Trained technicians conducted semen analysis Semen volume was estimated by weighing. For sperm motility assessment, duplicates of 10 μl of well-mixed semen were placed on a glass slide, examined on a heating stage kept at 37° C., under a microscope at ×400 magnification, and spermatozoa were classified as progressive motile (WHO class A+B), non-progressive motile (class C) or immotile (class D). The average of the two motility assessments was used. For the assessment of the sperm concentration the samples were diluted in a solution of 0.6 mol/l NaHCO3 and 0.4% (v/v) formaldehyde in distilled water, and subsequently assessed using Bürker-Türk haemocytometer. Only spermatozoa with tails were counted. Finally, smears were prepared, Papanicolaou stained and spermatozoa morphology assessed according to strict criteria.
Their semen samples were assessed as described above. […] Motility assessment was conducted in 17 samples (in duplicates) under non-capacitating conditions (in their seminal plasma), and 3 samples were also analyzed in capacitating conditions. 7 consecutively included men were used to investigate a dose-response relationship between VD and sperm motility.

[4] = 1,25(OH)2D3 after pretreatment with nifedipine 10 μM
[5] = higher 1,25(OH)2D3 concentrations

In the case of `CC(=O)[C@H]1CC[C@H]2[C@@H]3CCC4=CC(=O)CC[C@]4(C)[C@H]3CC[C@]12C` [progesterone], the “increase in [Ca2+]i in calcium free media with EGTA (words)” value (human spermatozoa [1]; calcium free media, 5 μM EGTA) is reported as “Neither, 1,25(OH)2D3 nor progesterone were able to induce an increase in intracellular calcium; also recorded: could not induce an increase in [Ca2+]i”.

With `C=C1/C(=C\C=C2/CCC[C@]3(C)[C@@H]([C@H](C)CCCC(C)(C)O)CC[C@@H]23)C[C@@H](O)C[C@H]1O` [1β, 25(OH)2D3] the “effect of non-genomic VDR antagonist pretreatment on the calcium response to 1,25(OH)2D3” value (human spermatozoa [1]; 1 nM calcitriol) was “completely blocked; also recorded: abrogated the response to 1,25(OH)2D3 completely” and the “effect of non-genomic VDR antagonist pretreatment on the calcium response to 1,25(OH)2D3” value (human spermatozoa [1]; 1 nM calcitriol, listed as 1β,25(OH) 2D3) was “blocked completely”.

`COc1ccc2c(c1)CC[C@@H]1[C@@H]2CC[C@]2(C)[C@@H](NCCCCCCN3C(=O)C=CC3=O)CC[C@@H]12` [U73122, 1-[6-[[17fi-3-methoxyestra-1,3,5(10)-trien-17-yl]amino]hexyl]-1H-pyrrole-2,5-dione] was tested, and the “effect on the calcium response to 1,25(OH)2D3” value (human spermatozoa [1]; 2 μM U73122, no concentration) was “unable to induce a rapid increase in [Ca2+]i; also recorded: caused a delayed and diminished response to 1,25(OH)2D3”, the “effect on the rapid calcium increase elicited with 1 nM 1,25(OH)2D3” value (human spermatozoa [1]; 5 μM U73122) was “delayed in these spermatozoa and the amplitude was smaller or absent” and the “spermatozoa that remained low and stable in intracellular calcium” value (human spermatozoa [1]; 5 μM U73122, normal calcium containing media) was 10-20%. The “increase of baseline [Ca2+]i” value (human spermatozoa [1]; 10 μM U73122) was “more than 5 fold”, the “spermatozoa that increased their baseline [Ca2+]i” value (human spermatozoa [1]; 10 μM U73122) was greater than 80% and the “effect of PLC inhibition on the calcium effect of progesterone” value (human spermatozoa [1]; U73122) was “unable to abrogate the effect of progesterone”.

For `C=C1/C(=C\C=C2/CCC[C@]3(C)[C@@H]([C@H](C)/C=C/[C@@H](O)C4(C(=O)OCCCC)CC4)CC[C@@H]23)C[C@@H](O)C[C@@H]1O` [ZK159222], the “effect of nuclear VDR antagonist on the calcium response to 1,25(OH)2D3” value (human spermatozoa [1]; ZK159222 0.1-100 μM, 1 nM calcitriol) was “could not be abrogated; also recorded: unable to abrogate or suppress the effect of 1,25(OH)2D3 treatment”.

With `C/C=C(/C)C(=O)O[C@H]1C(C)=C2[C@H]([C@@H]1OC(=O)CCCCCCC)[C@@](C)(OC(C)=O)C[C@H](OC(=O)CCC)[C@@]1(O)[C@H]2OC(=O)[C@@]1(C)O` [thapsigargin] the “effect on baseline calcium concentration” value (human spermatozoa [1]; thapsigargin 4 μM) was “caused a slow increase in baseline calcium concentration”, the “calcium response to 1,25(OH)2D3 after thapsigargin” value (human spermatozoa [1]; thapsigargin 4 μM, 1,25(OH)2D3 added 9 min later) was “unable to elicit a substantial calcium response; also recorded: diminished the effect of 1,25(OH)2D3” and the “stable plateau, higher than baseline calcium concentration” value (human spermatozoa [1]; thapsigargin 4 μM, nine minutes after exposure) was 3 fold. For the same molecule, the “calcium response to 1,25(OH)2D3 after thapsigargin” value (human spermatozoa [1]; thapsigargin <1 μM) was “unable to abrogate the effect of 1,25(OH)2D3”.

In the case of `C=C1CC[C@H](O)C/C1=C/C=C1\CCC[C@]2(C)[C@@H]([C@H](C)CCCC(C)(C)O)CC[C@@H]12` [25-OH D3, 25-hydroxycholecalciferol], the “effect on intracellular calcium” value (human spermatozoa [1]; 25-OH D3 up to 100 nM, normal media) is reported as “no effect on intracellular calcium levels” and the “effect on intracellular calcium” value (human spermatozoa [1]; 25-OH D3 up to 100 nM, normal media, listed as 25-0H D3) is reported as “unable to elicit an increase in [Ca2+]i”.

For `C[C@H](CCC(=O)O)C[C@H](C)C[C@H](C)C(=O)/C=C(\O)[C@H](C)C[C@H](C)C/C=C/[C@@H](C)[C@@H](O)[C@@H](C)[C@@H](O)C[C@@H]1CC[C@@](C)([C@H]2CC[C@@](C)([C@@H](C)O)O2)O1` [ionomycin], the “increase in [Ca2+]i in calcium free media with EGTA (words)” value (human spermatozoa [1]; ionomycin 500 nM) was “low but significant increase in the intracellular calcium; also recorded: elicited only a small Ca2+ rise”, the “amplitude of the response from baseline” value (human spermatozoa [1]; ionomycin 500 nM, calcium free media with EGTA) was less than 3 fold and the “increase in [Ca2+]i in calcium free media with EGTA (words)” value (human spermatozoa [1]; ionomycin 500 nM, listed as Ionomycin) was “low but reproducible increase in [Ca2+]i”.

In the case of `C=C1/C(=C\C=C2/CCC[C@]3(C)[C@@H]([C@H](C)CCCC(C)(C)O)CC[C@@H]23)C[C@@H](O)C[C@@H]1O` [1,25(OH)2D3, 1,25-dihydroxyvitamin D3], the “effect of pre-treatment with 1,25(OH)2D3 on the calcium effect of progesterone” value (human spermatozoa [1]) is reported as “could not be abrogated”, the “maximum amplitude of the calcium increase, higher than baseline calcium level” value (human spermatozoa [1]; 1 nM 1,25(OH)2D3) is reported as 5-10 fold and the “calcium response in non-capacitating media” value (human spermatozoa [1]; 1 nM 1,25(OH)2D3, versus capacitating media) is reported as “lower amplitude”. The “amplitude relative to the amplitude elicited by 10 μM progesterone” value (human spermatozoa [1]; 1,25(OH)2D3 (1 nM elsewhere in the source)) was 40% and 40-80%, the “effect on intracellular calcium” value (human spermatozoa [1]; 1,25(OH)2D3, printed range 50 μM-10 μM, 100 μM-10 μM) was “induced a rapid increase in intracellular calcium” and the “increase in intracellular calcium from baseline” value (human spermatozoa [1]; 1,25(OH)2D3 added to motile spermatozoa, calcium containing medium) was 5-10 fold. The “length of repolarisation phase” value (human spermatozoa [1]; [4]) was 4 min, the “maximum amplitude of calcium increase, higher than baseline” value (human spermatozoa [1]; [4]) was 7 fold and the “threshold for the observed all-or-nothing calcium response” value (human spermatozoa [1]; 1,25(OH)2D3 concentration) was 10 to 50 µM. For the same molecule, the “duration of plateau phase” value (human spermatozoa [1]; <10 nM 1,25(OH)2D3) was “up to 50 sec”, the “start of the calcium increase in the neck region” value (human spermatozoa [1]; after addition of 1,25(OH)2D3) was no more than 5 s and the “increase in [Ca2+]i in calcium free media with EGTA (words)” value (human spermatozoa [1]; calcium free media, 5 μM EGTA) was “Neither, 1,25(OH)2D3 nor progesterone were able to induce an increase in intracellular calcium; also recorded: could not induce an increase in [Ca2+]i”. The “dependence of amplitude on concentration” value (human spermatozoa [1]; [5]) was “did not seem to increase markedly with higher concentration; also recorded: did not increase with higher 1,25(OH)2D3 concentrations”, the “duration of plateau phase” value (human spermatozoa [1]; [5]) was 50 to 300 s and the “calcium response in calcium free media without EGTA” value (human spermatozoa [1]; potentially contaminated [Ca2+]<5 uM) was “marked response; also recorded: increased intracellular calcium rapidly”. The “median percentage of spermatozoa with an equatorial band (eq. AR)” value (human spermatozoa [2]; 1,25(OH)2D3 10^-9M (control 4.7%), p=0.214) was 5.3%, the “median percentage of acrosome reacted spermatozoa” value (human spermatozoa [2]; 1,25(OH)2D3 10^-9M, capacitating media (control 12%)) was 21% and the “average increase in acrosome reacted spermatozoa” value (human spermatozoa [2]; 1,25(OH)2D3 10^-9M, capacitating media, p=0.024) was 6%. The “acrosome reacted spermatozoa in non-capacitating conditions” value (human spermatozoa [2]; NaCl, 6 men, VD treated (control 3.7%)) was 4.2%, the “sperm motility (ABC) in young normal men” value (human spermatozoa [3]) was “increased significantly; also recorded: modest increase in sperm motility” and the “sperm motility (ABC) in young normal men” value (human spermatozoa [3]; listed as calcitriol) was “significant increase in normal men”. The “sperm motility in infertile/subfertile men” value (human spermatozoa [3]) was “did not increase; also recorded: no increase in sperm motility”, the “sperm motility in infertile/subfertile men” value (human spermatozoa [3]; listed as activated VD) was “did not increase in sperm motility” and the “sperm motility in infertile/subfertile men” value (human spermatozoa [3]; listed as calcitriol) was “unable to increase motility in infertile men”. The “increase in median sperm motility (ABC)” value (human spermatozoa [3]; 1,25(OH)2D3 10-14M to 10^-9M, dose-response, 7 men) was 2-7%, the “median decrease in sperm motility compared with control” value (human spermatozoa [3]; 1,25(OH)2D3 10^-5M) was 15% and the “median increase in sperm motility (ABC)” value (human spermatozoa [3]; 1,25(OH)2D3 10^-9M, p=0.006) was 7%. The “sperm motility” value (human spermatozoa [3]; 1,25(OH)2D3 concentrations above 10^-7M) was “decreased motility compared with control” and the “increase in mean sperm motility” value (human spermatozoa [3]; 10^-9M 1,25(OH)2D3, 30 min, room temperature, 17 men, p=0.010) was 2.9%.

Source: patent publication US20130045890A1, “TEST FOR MALE FERTILITY” (Rigshospitalet Copenhagen University Hospital, priority 2010, published 2013)
